Results on 11 molecules are retold here after patent publication US20260152501A1, “CYCLIN MODULATOR” (EUBULUS BIOTHERAPEUTICS (HONG KONG) LIMITED, priority 2022, published 2026).

pIC50: −log10 of the molar value.

One test has as its system Cyclin K. In words: Immunohistochemistry (IHC) staining of Cyclin K in HepG2 cells. In kind it is cell-based. To be noted: incubated with compound 2 hours, CCNK antibody. As for the experimental part: Appropriate amount of compounds were added to the cultured cells. The cells were incubated in a tissue culture incubator at 37° C. for 2 hours.
After washing the cultured cells twice with PBS, 100 μL 10% neutral buffered formalin were added and the cells were fixed for 20 minutes.
After washing 3 times with PBS, immunohistochemical staining was performed using CCNK antibody and general two-step detection kit (mouse/rabbit enhanced polymer detection system, PV-9000, Zsbio Inc, Beijing).
Specifically, 100 μL of endogenous peroxidase blocker in the kit was added, cells were incubated at room temperature for 10 minutes; rinsed with PBS buffer for 3 minutes×3 times.
100 μL CCNK antibody 1:5000 dilution was added, and the cells were incubated at 37° C. for 60 minutes; rinsed with PBS buffer for 3 minutes×3 times.
100 μL reaction enhancer was added, and the cells were incubated at 37° C. for 20 minutes; rinsed with PBS buffer for 3 minutes×3 times.
100 μL enhanced enzyme-labeled goat anti-mouse/rabbit IgG polymer was added, and the cells were incubated at 37° C. for 20 minutes; rinsed with PBS buffer for 3 minutes×3 times.
The cells were placed in 75% ethanol, soaked for 3 minutes×2 times; placed in 95% ethanol, soaked for 3 minutes×2 times; after removing excess liquid, placed in anhydrous ethanol, soaked for 3 minutes×3 times; after removing excess liquid, air dried, observed under a microscope and taken pictures after sealing.

The next test deals with HepG2 cells. In words: Antiproliferative effect on HepG2 cells. The class given is cell-based. To be noted: Homo sapiens. As for the experimental part:
Reagents: RPMI-1640 medium, McCoy's 5A medium, IMDM medium, MEM medium, L-15 medium, fetal bovine serum, Penicillin-Streptomycin double antibody, trypsin, etc., 2-mercaptoethanol, NEAA, pyruvate, etc.
The test cells were cultured in conventional ways, and the cells should be passed for at least 2 generations before plating.
All cells were subjected to IC50 test for corresponding samples.
The fluorescence intensity of each well was detected using the Alarm blue method, and EC50 was calculated.
IC50 was calculated according to the following formula:
[formula] • wherein, Min, Max and Slope represent the minimum, maximum and slope respectively.

In the case of `CC(C)n1cnc2c(NCc3ccc(-c4ccccc4OCCCCO)cc3)nc(N3CCNCC3)nc21` [UB-050, 4-((4′-(((9-isopropyl-2-(piperazin-1-yl)-9H-purin-6-yl)amino)methyl)-[1,1′-biphenyl]-2-yl)oxy)butan-1-ol], the “Cyclin K IHC data of HepG2 cells” value with Cyclin K is “D (D > 278 nM)”. In addition, the negative logarithm of the IC50 (pIC50) in the test with HepG2 cells is 6.52 to 7.00.

For the molecule `c1ccc(-c2ccc(CNc3nc(N4CCNCC4)nc4c3ncn4C3CCC3)cc2)cc1` [UB-052, N-([1,l′-biphenyl]-4-ylmethyl)-9-cyclobutyl-2-(piperazin-1-yl)-9H-purin-6-amine], the “Cyclin K IHC data of HepG2 cells” value in the test with Cyclin K is “C (93 nM < C <= 278 nM)”. For the same molecule, in the test with HepG2 cells, the negative logarithm of the IC50 (pIC50) was more than 7.30.

Consider `CC(C)n1cnc2c(NCc3ccc(-c4ccccc4)cc3)nc(N[C@H]3C[C@@H](N)C3)nc21` [UB-041, N6-([1,1′-biphenyl]-4-yl-methyl)-N2-((1s,3s)-3-aminocyclobutyl)-9-isopropyl-9H-purin-2,6-diamine], for which the “Cyclin K IHC data of HepG2 cells” value in the test on Cyclin K is given as “C (93 nM < C <= 278 nM)”. In addition, the negative logarithm of the IC50 (pIC50) with HepG2 cells is more than 7.30.

Consider `CCCOc1cc(CNc2nc(N3CCNCC3)nc3c2ncn3C(C)C)ccc1-c1ccccc1` [UB-044, 9-isopropyl-2-(piperazin-1-yl)-N-((2-propoxy-[1,1′-biphenyl]-4-yl)methyl)-9H-purin-6-amine], for which, in the test with Cyclin K, the “Cyclin K IHC data of HepG2 cells” value is given as “D (D > 278 nM)”. This molecule also showed a pIC50 with HepG2 cells of less than 6.52.

For `CC(C)n1cnc2c(NCc3ccc(-c4ccccc4)cc3)nc(OC[C@@H]3CNCCN3)nc21` [UB-033, (S)-N-([1,l′-biphenyl]-4-ylmethyl)-9-isopropyl-2-(piperazin-2-ylmethoxy)-9H-purin-6-amine], the “Cyclin K IHC data of HepG2 cells” value in the test on Cyclin K is recorded as “C (93 nM < C <= 278 nM)”. In the test on HepG2 cells, the pIC50 is 7.00 to 7.30.

`CC(C)n1cnc2c(NCc3ccc(-c4ccccc4)cc3)nc(N[C@@H]3CCNC3)nc21` [UB-038, (R)-N6-([1,1′-biphenyl]-4-ylmethyl)-9-isopropyl-N2-(pyrrolidin-3-yl)-9H-purin-2,6-diamine]: the “Cyclin K IHC data of HepG2 cells” value in the test on Cyclin K is reported as “C (93 nM < C <= 278 nM)”. In addition, the pIC50 in the test with HepG2 cells is more than 7.30.

As to `CC(C)n1cnc2c(NCc3ccc(-c4ccccc4)cc3)nc(N3CCN[C@@H](C)C3)nc21` [UB-026, (S)-N-([1,1′-biphenyl]-4-ylmethyl)-9-isopropyl-2-(3-methylpiperazin-1-yl)-9H-purin-6-amine], the “Cyclin K IHC data of HepG2 cells” value in the test with Cyclin K is recorded as “B (31 nM < B <= 93 nM)”. The molecule also had a pIC50 with HepG2 cells of more than 7.30.

As to `CC(C)n1cnc2c(NCc3ccc(-c4ccccc4)cc3)nc(N3CCNC[C@@H]3C)nc21` [UB-021, (S)-N-([1,1′-biphenyl]-4-ylmethyl)-9-isopropyl-2-(2-methylpiperazin-1-yl)-9H-purin-6-amine], the “Cyclin K IHC data of HepG2 cells” value in the test with Cyclin K is “C (93 nM < C <= 278 nM)”. This molecule showed a negative logarithm of the IC50 (pIC50) in the test on HepG2 cells of 7.00 to 7.30.

Turning to `CC(C)n1cnc2c(NCc3ccc(-c4ccccc4OCCCC#N)cc3)nc(N3CCNCC3)nc21` [UB-051, 4-((4′-(((9-isopropyl-2-(piperazin-1-yl)-9H-purin-6-yl)amino)methyl)-[1,1′-biphenyl]-2-yl)oxy)butyronitrile], the “Cyclin K IHC data of HepG2 cells” value in the test on Cyclin K was “D (D > 278 nM)”. This molecule had a pIC50 in the test on HepG2 cells of 6.52 to 7.00.

Regarding `CC(C)n1cnc2c(NCc3ccc(-c4ccccc4OCCN)cc3)nc(N3CCNCC3)nc21` [UB-048, N-((2′-(2-aminoethoxy)-[1,1′-biphenyl]-4-yl)methyl)-9-isopropyl-2-(piperazin-1-yl)-9H-purin-6-amine], the “Cyclin K IHC data of HepG2 cells” value in the test on Cyclin K was “D (D > 278 nM)”. In the test on HepG2 cells, the pIC50 was less than 6.52.

Consider `CC(C)n1cnc2c(NCc3ccc(-c4ccccc4)c(OCCCCO)c3)nc(N3CCNCC3)nc21` [UB-045, 4-((4-(((9-isopropyl-2-(piperazin-1-yl)-9H-purin-6-yl)amino)methyl)-[1,1′-biphenyl]-2-yl)oxy)butan-1-ol], for which the “Cyclin K IHC data of HepG2 cells” value in the test on Cyclin K is given as “D (D > 278 nM)”. In the test on HepG2 cells, this molecule showed a negative logarithm of the IC50 (pIC50) of less than 6.52.
